Test [1] deals with T1, Replicative DNA helicase DnaB (Mycobacterium tuberculosis, UniProt P9WMR3).
T1 sequence (P9WMR3 whole entry): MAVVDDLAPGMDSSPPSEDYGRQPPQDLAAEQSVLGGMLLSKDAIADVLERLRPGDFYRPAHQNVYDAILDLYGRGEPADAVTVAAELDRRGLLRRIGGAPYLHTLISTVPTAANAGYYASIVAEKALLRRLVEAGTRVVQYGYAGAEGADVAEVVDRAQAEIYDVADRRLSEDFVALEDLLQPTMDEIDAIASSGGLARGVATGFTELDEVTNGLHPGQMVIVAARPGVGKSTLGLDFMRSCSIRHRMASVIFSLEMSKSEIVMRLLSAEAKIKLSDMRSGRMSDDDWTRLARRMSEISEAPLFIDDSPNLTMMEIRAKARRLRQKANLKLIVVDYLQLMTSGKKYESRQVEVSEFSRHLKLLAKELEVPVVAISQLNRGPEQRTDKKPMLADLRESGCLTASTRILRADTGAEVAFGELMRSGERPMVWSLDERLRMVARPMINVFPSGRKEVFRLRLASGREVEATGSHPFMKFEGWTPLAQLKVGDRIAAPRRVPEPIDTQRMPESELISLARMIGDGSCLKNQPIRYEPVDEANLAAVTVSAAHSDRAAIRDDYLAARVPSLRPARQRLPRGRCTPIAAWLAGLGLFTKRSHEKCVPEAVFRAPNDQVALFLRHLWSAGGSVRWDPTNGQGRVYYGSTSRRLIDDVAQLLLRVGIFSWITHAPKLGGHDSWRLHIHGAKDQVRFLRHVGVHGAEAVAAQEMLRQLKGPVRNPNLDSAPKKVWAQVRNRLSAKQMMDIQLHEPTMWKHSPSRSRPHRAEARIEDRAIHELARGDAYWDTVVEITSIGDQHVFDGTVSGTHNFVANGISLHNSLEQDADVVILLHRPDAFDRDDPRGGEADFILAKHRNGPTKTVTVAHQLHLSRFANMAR
Put plainly: DnaB intein splicing inhibitors, dose response, biochemical, cell-free fluorescence (AID 449749). Type of test: functional.

For test [2], the target named is T2, Leucine aminopeptidase (Plasmodium falciparum 3D7, UniProt Q8IL11).
T2 sequence (Q8IL11 whole entry): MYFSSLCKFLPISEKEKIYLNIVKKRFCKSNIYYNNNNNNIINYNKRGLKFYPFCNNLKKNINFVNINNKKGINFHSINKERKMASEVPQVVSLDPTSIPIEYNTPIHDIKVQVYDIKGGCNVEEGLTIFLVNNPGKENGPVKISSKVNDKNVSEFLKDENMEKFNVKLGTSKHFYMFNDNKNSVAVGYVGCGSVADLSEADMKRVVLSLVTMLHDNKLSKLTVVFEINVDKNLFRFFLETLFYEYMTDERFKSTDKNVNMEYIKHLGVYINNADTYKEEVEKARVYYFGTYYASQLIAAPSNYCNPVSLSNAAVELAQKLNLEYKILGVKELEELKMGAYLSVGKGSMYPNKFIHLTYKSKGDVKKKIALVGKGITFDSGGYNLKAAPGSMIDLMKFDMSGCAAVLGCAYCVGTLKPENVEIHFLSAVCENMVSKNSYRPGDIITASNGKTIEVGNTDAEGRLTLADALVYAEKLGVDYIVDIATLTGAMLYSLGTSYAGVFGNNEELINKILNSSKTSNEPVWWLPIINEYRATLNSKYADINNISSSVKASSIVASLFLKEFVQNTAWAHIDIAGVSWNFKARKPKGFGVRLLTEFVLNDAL
The test is described as follows: P. falciparum M17LAP inhibitors, primary screen, biochemical, fluorogenic H-Leu-NHMec substrate, 1536-well (AID 1619). Type of test: functional.

The target in test [3] is T3, Protein RecA (Mycobacterium tuberculosis, UniProt P9WHJ3).
T3 sequence (P9WHJ3 whole entry): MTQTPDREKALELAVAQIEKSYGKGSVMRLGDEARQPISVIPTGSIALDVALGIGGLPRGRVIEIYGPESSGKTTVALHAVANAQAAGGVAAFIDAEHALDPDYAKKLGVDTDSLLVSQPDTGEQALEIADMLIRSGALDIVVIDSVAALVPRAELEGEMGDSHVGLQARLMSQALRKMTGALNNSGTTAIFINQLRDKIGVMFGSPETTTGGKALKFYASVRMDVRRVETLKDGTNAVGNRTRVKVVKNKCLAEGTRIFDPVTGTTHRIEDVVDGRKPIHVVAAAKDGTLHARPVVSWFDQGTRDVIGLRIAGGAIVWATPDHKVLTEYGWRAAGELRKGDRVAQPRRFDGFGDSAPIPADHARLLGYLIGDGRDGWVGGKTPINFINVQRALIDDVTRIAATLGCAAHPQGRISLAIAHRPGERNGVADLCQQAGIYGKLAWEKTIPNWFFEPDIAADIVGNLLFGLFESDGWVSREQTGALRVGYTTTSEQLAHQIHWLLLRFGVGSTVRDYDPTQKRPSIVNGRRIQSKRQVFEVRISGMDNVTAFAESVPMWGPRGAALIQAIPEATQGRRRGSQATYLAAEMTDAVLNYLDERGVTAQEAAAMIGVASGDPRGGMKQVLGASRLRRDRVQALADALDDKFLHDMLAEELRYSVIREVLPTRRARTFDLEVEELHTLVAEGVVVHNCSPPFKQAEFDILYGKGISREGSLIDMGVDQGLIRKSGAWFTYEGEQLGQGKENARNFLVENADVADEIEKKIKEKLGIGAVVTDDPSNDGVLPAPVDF
Put plainly: Fluorescence Cell-Free Homogeneous Dose Retest to Identify Inhibitors of RecA-Intein Splicing Activity. [Related pubchem assays (depositor defined):AID2097, AID2223, AID489010, AID492950]. Type of test: functional.

The target in test [4] is T4, RNA-binding protein pos-1 (Caenorhabditis elegans, UniProt G5EF15).
T4 sequence (G5EF15 whole entry): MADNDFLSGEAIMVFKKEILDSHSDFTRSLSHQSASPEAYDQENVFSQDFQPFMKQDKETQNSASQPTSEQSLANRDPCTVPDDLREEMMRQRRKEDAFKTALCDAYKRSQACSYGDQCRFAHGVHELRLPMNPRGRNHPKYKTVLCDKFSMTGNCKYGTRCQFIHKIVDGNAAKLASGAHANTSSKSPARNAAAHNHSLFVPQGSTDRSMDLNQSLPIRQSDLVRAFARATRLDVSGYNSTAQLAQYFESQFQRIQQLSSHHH
Put plainly: disruptors of C. elegans POS-1 RNA interaction – biochemical, fluorescence polarization, dose response (AID 1964).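 Further: purified POS-1 fused to maltose binding protein made in E. coli; potency of compounds blocking POS-1 binding to fluorescent RNA.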

Test [5] concerns the target T5, Zinc finger protein mex-5 (Caenorhabditis elegans, UniProt Q9XUB2).
T5 sequence (Q9XUB2 whole entry): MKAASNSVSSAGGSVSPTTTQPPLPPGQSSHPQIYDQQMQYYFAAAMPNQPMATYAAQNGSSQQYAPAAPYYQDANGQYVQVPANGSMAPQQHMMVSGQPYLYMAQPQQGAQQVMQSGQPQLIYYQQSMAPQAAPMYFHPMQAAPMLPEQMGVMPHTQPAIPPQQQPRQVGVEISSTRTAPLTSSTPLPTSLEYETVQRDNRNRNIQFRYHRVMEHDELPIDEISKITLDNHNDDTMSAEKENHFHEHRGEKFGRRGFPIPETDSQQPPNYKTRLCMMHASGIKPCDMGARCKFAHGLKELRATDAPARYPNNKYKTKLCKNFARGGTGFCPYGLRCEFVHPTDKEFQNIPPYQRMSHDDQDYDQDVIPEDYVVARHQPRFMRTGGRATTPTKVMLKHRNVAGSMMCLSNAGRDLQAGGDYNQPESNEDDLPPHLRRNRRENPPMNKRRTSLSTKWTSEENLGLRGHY
Put plainly: potency of MEX-5 RNA-binding blockers – biochemical, C. elegans, fluorescence polarization, dose response (AID 1960).

For test [6], the target named is T6, Polyadenylate-binding protein 1 (Homo sapiens, UniProt P11940). Put plainly: MLLE domain peptide-binding blockers, IC50 – biochemical, fluorescence polarization, FITC-PAM2 peptide, dose response (AID 602259). Format: functional. As to conditions: read-out: IC50_Mean. Background: Polarisation of emitted light reports the rotation of a fluorescent probe.
T6 sequence (P11940 whole entry, the tested form may be a part): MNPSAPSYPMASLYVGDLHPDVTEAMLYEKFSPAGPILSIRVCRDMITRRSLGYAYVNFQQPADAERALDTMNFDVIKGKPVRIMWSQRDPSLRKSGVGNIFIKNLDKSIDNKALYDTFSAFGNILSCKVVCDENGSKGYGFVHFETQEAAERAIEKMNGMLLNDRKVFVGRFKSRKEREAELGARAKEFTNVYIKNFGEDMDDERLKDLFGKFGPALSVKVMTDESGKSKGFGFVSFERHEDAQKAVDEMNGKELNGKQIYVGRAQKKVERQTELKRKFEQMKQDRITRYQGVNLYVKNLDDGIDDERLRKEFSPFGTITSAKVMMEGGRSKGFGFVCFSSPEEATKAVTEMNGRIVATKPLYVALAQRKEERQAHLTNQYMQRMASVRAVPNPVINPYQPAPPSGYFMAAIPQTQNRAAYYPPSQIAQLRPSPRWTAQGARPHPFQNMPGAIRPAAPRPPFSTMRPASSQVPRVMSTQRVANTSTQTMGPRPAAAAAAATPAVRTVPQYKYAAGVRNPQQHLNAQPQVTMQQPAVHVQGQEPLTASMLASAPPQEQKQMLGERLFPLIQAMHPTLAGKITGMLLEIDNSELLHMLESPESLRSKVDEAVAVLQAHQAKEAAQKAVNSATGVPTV
Test [7] deals with T6, Polyadenylate-binding protein 1. Put plainly: MLLE binding blockers, Cy5 peptide tracer – biochemical, fluorescence polarization, Cy5-PAM2 peptide, secondary, miRNA deadenylation inhibitor project, dose response (AID 602260). Type of test: functional. As to conditions: read-out: IC50_Mean.
The nature of test [8]: NIH-3T3 fibroblast cytotoxicity, dose response, cytotoxicity control, cell-based, fluorescence, Alamar Blue, secondary assay (AID 2327).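 Further: NIH-3T3 mouse fibroblasts cultured with fluconazole at 8 µg/mL.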 Type of test: functional. In general terms: Resazurin is reduced to fluorescent resorufin, in cell work by metabolically active cells.
The target of test [9] is T7, Heat shock factor protein 1 (Mus musculus, UniProt P38532).
T7 sequence (P38532 whole entry): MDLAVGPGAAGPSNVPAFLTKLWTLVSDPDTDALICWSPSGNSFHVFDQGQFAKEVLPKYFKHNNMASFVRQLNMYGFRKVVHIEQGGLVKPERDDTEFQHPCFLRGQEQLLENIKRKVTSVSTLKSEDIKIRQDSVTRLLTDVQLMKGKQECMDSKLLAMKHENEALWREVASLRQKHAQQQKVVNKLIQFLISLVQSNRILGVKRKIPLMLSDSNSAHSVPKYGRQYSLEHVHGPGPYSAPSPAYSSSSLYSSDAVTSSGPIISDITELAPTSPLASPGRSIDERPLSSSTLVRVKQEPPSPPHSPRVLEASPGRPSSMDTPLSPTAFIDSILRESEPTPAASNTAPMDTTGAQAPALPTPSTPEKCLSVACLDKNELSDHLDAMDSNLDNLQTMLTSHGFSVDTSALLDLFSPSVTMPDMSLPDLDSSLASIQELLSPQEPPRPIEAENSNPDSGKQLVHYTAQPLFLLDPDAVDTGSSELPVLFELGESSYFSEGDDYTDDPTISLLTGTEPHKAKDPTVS
Put plainly: decrease of HSF1-responsive luciferase luminescence – cell-based, NIH3T3, dose retest, confirmation (AID 2382).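 Further: NIH3T3 fibroblasts with HSF1-driven luciferase reporter stressed by proteasome inhibitor MG132; luminescence from HSF1-driven luciferase expression after 8 hours of MG132 stress.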 Format: functional.

Calls of active or inactive are those of the source.

In general, AC50 refers to the midpoint of the concentration-response curve, whichever way the signal moves. By EC50 is commonly meant the midpoint of the concentration-response curve. Consider `CC(/C=N/NC(=O)Cc1cc(O)[nH]n1)=C\c1ccccc1`, for which the AC50 in [1] was 2.53 µM (active). Also, the IC50 in [2] was 72.4 µM (active). Moreover, the 50% effective concentration (EC50) in [3] is 0.935 µM (active).

On to `O=C(c1ccco1)N1CCN(c2ncnc3c(-c4ccc(Cl)cc4)nsc23)CC1`, for which the EC50 in test [4] and in [5] was > 300 µM (not active) each time. With `Cc1ccc2nc(O)c(C(c3nnnn3CC3CCCO3)N3CCc4ccccc4C3)cc2c1` (configuration not stated), the IC50 in test [6] and in test [7] was > 66 µM (inactive) in each case. Take `O=C(/N=C1\SC2CS(=O)(=O)CC2N1c1ccccc1)C1CC1` (configuration not stated): the EC50 in test [4] is > 300 µM (not active); in test [5] it was > 300 µM (inconclusive). As to `CCC1(c2ccccc2)NC(=O)N(CC(=O)NCc2ccc(F)cc2)C1=O` (configuration not stated), the EC50 in test [4] and in [5] was > 300 µM (not active) in each case.

As for `CC1=C(C#N)C(=O)OC(C)(C)C1`, the EC50 is 10.8 µM (active) in test [4] and 10.1 µM (active) in test [5]. The like results for `CCOc1ccc(N/C(=C(/C(Cl)=C(Cl)Cl)[N+](=O)[O-])n2cncn2)cc1` were, in that order, 46.9 µM (active) and 45.4 µM (active). On to `Cc1cc(O)nc(SCC(=O)Nc2ccc(C(=O)O)cc2)n1`, for which the IC50 in [6] and in test [7] was > 66 µM (inactive) in each case. Consider `O=C(NC(=S)Nc1ccc(CN2CCOCC2)cc1)c1ccc([N+](=O)[O-])cc1`, for which the IC50 in test [6] and in test [7] was > 66 µM (inactive) each time. For `COc1cccc(/C=N/NC(=O)CC2C(=O)NN=C2C)c1OC` (configuration not stated), in [2], the IC50 is 23.5 µM (active). As for `C=C(C)c1cccc(C(C)(C)NC(=O)Nc2ccc(C(N)=O)cc2)c1`, in [8], the EC50 is > 150 µM (inactive). As for `CCCCC1=CC2=CC(=O)C(C)(OC(=O)CCC(=O)OC)C(=O)C2=CO1` (configuration not stated), the EC50 was 30 µM (active) in [4] and 26.6 µM (active) in test [5]. As for `CCCN1C(=O)/C(=C/c2ccc(C)o2)S/C1=N/c1ccc(OC)cc1`, the EC50 in test [4] is 44.6 µM (active); in test [5], 103 µM (inconclusive). As for `O=S(=O)(NCCCSc1ccccc1)c1ccccc1F`, the IC50 in test [6] and in test [7] was > 66 µM (inactive) each time. Take `S=C1NC(c2ccccc2)N2C(=S)NC(c3ccccc3)N12` (configuration not stated): the IC50 in [2] was 20.9 µM (active). As for `NC(=O)CC(NC(=O)Cc1ccc(Cl)cc1)c1ccc(NC2CCCCCC2)c([N+](=O)[O-])c1` (configuration not stated), the concentration giving a half-maximal response (EC50) was > 300 µM (not active) in test [4], > 300 µM (not active) in [5] and > 195 µM (not active) in test [9]. Turning to `COc1ccc(NC(=O)Nc2ccc3oc(C)nc3c2)cc1`, the IC50 in test [2] was 14.8 µM (active). `COC(=O)c1c(N=C(S)Nc2cc(OC)c(Cl)cc2OC)sc2c1CCCCC2`: the IC50 in [6] and in test [7] was > 66 µM (inactive) each time.

As for `COc1ccc(C(=O)NC(=S)N2CCCc3ccccc32)cc1OC`, the IC50 in test [6] and in test [7] was > 66 µM (inactive) each time.

As for `COc1cccc(C(=O)NCc2ccc3[nH]c(C)cc3c2)c1`, the IC50 in test [6] and in test [7] was > 66 µM (inactive) throughout. As to `COc1ccc(NC(=O)CSc2nnc(NC(=O)c3ccccc3C(=O)O)s2)cc1`, the IC50 in [2] is 6.27 µM (active). `C/C(=N\Nc1ccc([N+](=O)[O-])cc1[N+](=O)[O-])c1cc2c(ccc3ccccc32)oc1=O`: the EC50 in test [4] and in test [5] was > 300 µM (not active) each time. For `CCOC(=O)c1cnn2cc(-c3[nH]ncc3[N+](=O)[O-])cnc12`, the IC50 in test [2] was 5.26 µM (active).

The values above are taken from ChEMBL document CHEMBL1201862, “PubChem BioAssay data set” (2004).
